Measured values from US10883994B2, “Identification of cancer stem cells markers and use of same for diagnosis and treatment” (Tel HaShomer Medical Research Infrastructure and Services …, priority 2014, dated 2021).
“Also recorded” adds a separate entry of the source.

Legend:
[1] = test system: ATRT Xn cells (MRT cells); test: MTS cell viability assay on MRT/ATRT Xn cells; assay type: cell-based, human; details: 100 μM BAPN, 48 h
Experimental: (§1) MTS—cell viability assay: 5×10^3 cells were plated in triplicates and grown in 96-well plates over-night. The following day the medium was changed and supplemented with various concentrations of BAPN and the cells were further incubated for 48 h. Cell proliferation was measured using CellTiter 96 Aqueous One Solution Cell Proliferation Assay (Promega) according to the manufacturer's instructions. Briefly, the cells were incubated with the MTS solution for 3 hours at 37° C. and absorbance at 492 nm was determined using a microplate reader. Three independent experiments were carried out.

[2] = test system: Wilms' tumor (WT) Xn cells; test: MTS cell viability assay on Wilms' tumor Xn cells; assay type: cell-based, human; details: Wilms' tumor Xn cells serially propagated in mice
Experimental: as §1

MRT cells (ATRT cells) [3] = test: Morphology of MRT/ATRT cells after BAPN treatment; assay type: cell-based, human
MRT cells (ATRT cells) [4] = test: Cell migration assay (scrape); assay type: cell-based, human; details: 100 μM BAPN, 48 h
Experimental: Cell migration assay: Cells were grown overnight, after which the medium was changed and supplemented with 100 μM BAPN. After 48 hours, a scrape was made through the confluent monolayers with a plastic 1 ml pipette tip. Treated and control cells were then photographed at identical time points (24 and 48 hours).

[5] = target: T1, LOX (lysyl oxidase) in ATRT cells (Homo sapiens, UniProt P28300); test: LOX activity assay (Amplex Red fluorescence); assay type: biochemical; details: 100 μM BAPN
T1 construct: endogenous in cells
T1 sequence (P28300 169-417): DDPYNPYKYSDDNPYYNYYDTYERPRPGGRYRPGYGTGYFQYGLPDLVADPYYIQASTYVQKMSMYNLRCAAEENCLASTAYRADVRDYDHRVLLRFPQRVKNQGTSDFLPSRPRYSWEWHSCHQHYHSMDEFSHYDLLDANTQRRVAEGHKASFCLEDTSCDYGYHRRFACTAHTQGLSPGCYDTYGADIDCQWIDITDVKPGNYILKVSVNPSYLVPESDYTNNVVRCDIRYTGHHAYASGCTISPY
Experimental: LOX Activity Assays: The LOX enzyme activity was measured using the Amplex Red fluorescence assay (AAA Bioquest, 15255), as previously described (15843371). The assay reaction mixture consisted of 50 mM sodium borate (pH 8.2), 1.2 M urea, 50 µM Amplex Red, 0.1 units/ml horseradish peroxidase, and 10 mM 1,5-diaminopentane (cadaverine) substrate. The protein samples were added to the reaction mix, in the presence or absence of 100 μM BAPN, which was then incubated at 37° C. for 30 minutes. The fluorescent product was measured at 590 nm using an […] microplate reader.

[6] = intermediate Xn passage (P10) MRT cells

N#CCCN [BAPN, β-Aminopropionitrile]
proliferation in comparison to UT cells (MTS cell viability) ([1]; P2 Xn cells): 47% | proliferation (MTS cell viability) ([1]; intermediate Xn passage (P10) cells, three different experiments): significantly reduced proliferation | effect on WT cell proliferation [2]: no effect on WT cell proliferation | morphological changes on ATRT cells (MRT cells (ATRT cells) [3]; P2 cells): nuclear condensation and cell swallowing | morphological changes on MRT cells (MRT cells (ATRT cells) [3]; [6]): nuclear condensation and cell swallowing | ATRT cell migration capacity compared to un-treated cells (MRT cells (ATRT cells) [4]; P2 cells): significant inhibited | MRT cell migration capacity compared to un-treated cells (MRT cells (ATRT cells) [4]; [6]): significant inhibited; also recorded: significantly inhibited | LOX activity (in words) [5]: significantly inhibited LOX activity | inhibition of LOX activity ([5]; P3 cells): 81% | inhibition of LOX activity ([5]; P10 cells): 63%
